Test results: US9856290B2, “Glycopeptide compositions and uses thereof” (SUSSEX RESEARCH LABORATORIES INC., priority 2013, dated 2018)
Marks after values point to notes of the source that are not given here. Primed or numbered codes have the meaning given here. The star is where a group is joined. Ac4‑β‑Gal = tetraacetyl-β-galactoside (peracetylated β-galactose), CC(=O)OC[C@H]1O[C@@H](*)[C@H](OC(C)=O)[C@@H](OC(C)=O)[C@H]1OC(C)=O; Ac3‑α‑GalNAc″ = peracetylated alpha-N-acetylgalactosamine, CC(=O)N[C@@H]1[C@@H](OC(C)=O)[C@@H](OC(C)=O)[C@@H](COC(C)=O)O[C@@H]1*; Ac3‑β‑GlcNAc = per-acetylated β-N-acetylglucosamine, CC(=O)N[C@@H]1[C@@H](OC(C)=O)[C@H](OC(C)=O)[C@@H](COC(C)=O)O[C@H]1*; Ac4‑β‑Glc = per-acetylated β-glucose (tetraacetyl), CC(=O)OC[C@H]1O[C@@H](*)[C@H](OC(C)=O)[C@@H](OC(C)=O)[C@@H]1OC(C)=O; Ac4‑β‑Glc″ = peracetylated beta-glucose, CC(=O)OC[C@H]1O[C@@H](*)[C@H](OC(C)=O)[C@@H](OC(C)=O)[C@@H]1OC(C)=O; Ac4‑α‑Man = per-acetylated α-mannose, CC(=O)OC[C@H]1O[C@H](*)[C@@H](OC(C)=O)[C@@H](OC(C)=O)[C@@H]1OC(C)=O; αGalNAc = CC(=O)N[C@@H]1[C@@H](O)[C@@H](O)[C@@H](CO)O[C@@H]1*; αMan = OC[C@H]1O[C@H](*)[C@@H](O)[C@@H](O)[C@@H]1O; βGlc = OC[C@H]1O[C@@H](*)[C@H](O)[C@@H](O)[C@@H]1O; βGal = OC[C@H]1O[C@@H](*)[C@H](O)[C@@H](O)[C@H]1O; Palmitoyl = CCCCCCCCCCCCCCCC(=O)*

Legend:
[1] = test system: Human Dermal Fibroblasts (KMST-6); test: ECM ELISA assay: elastin secretion by human dermal fibroblasts; assay type: cell-based; details: 5 μM; for Elastin Secretion at 48 hours: KMST-6, 48 hours; for Elastin Secretion at 48 hours / Elastin Secretion at 72 hours: % compared to control set at 100%, normalized to total protein
Experimental: (§1) KMST-6 cells (Japan Health Sciences Foundation, JCRB0433) were seeded at 7,000 cells/ml in 12-well tissue culture treated plates (Falcon, 353043) in complete media. The complete media consisted of the following: MEM/EBSS (Hyclone, SH30024.01), 10% Heat-Inactivated FBS (Gibco, 10082-147), 1% L-Glutamine (Hyclone, SH30031.01), 1% Nucleosides (800 mg/L Adenosine, 850 mg/L Guanidine, 730 mg/L Cytidine, 730 mg/L Uridine and 240 mg/L Thymidine), 1% Penicillin/Streptomycin (HyClone, SV30010), 1% Sodium Pyruvate (HyClone, SH30239.01), 1% Non-Essential Amino Acids (Hyclone, SH30238.01) and 0.04% Gentamicin (Gibco, 15710-064). Cells were grown for 2 days prior to treatments. The media was aspirated and cells were washed with 1×PBS (Fisher, SH30256.01) and treated with 5 μM (1 mL/well) glycopeptides, reference (Pal-KTTKS, CPC Scientific, 822197), and control (DMSO, Fisher, BP231-100) in serum-free media supplemented with 50 μg/mL Sodium Ascorbate (Sigma, A4034) and 80 μg/mL β-Aminopropionate Fumarate (Sigma, A3134). The treated cells were incubated at 37° C. and 5% CO2 for 48 and 72 hours. At each timepoint, media from each treatment was collected and centrifuged at 1500 RPM for 15 minutes at 4° C. The supernatant was collected and stored at −80° C. for extracellular matrix protein quantification. The following kits were used for quantification of ECM proteins: Fibronectin (Takara, MK115) and Elastin (Uscn Life Science Inc., E91337Hu). The cells were harvest and lysed with 250 μL Lysis Buffer (20 mM Tris-HCl (Sigma, T1503), 137 mM NaCl (Sigma, S9888), 2 mM EDTA (Fisher, BP118), 1% IGEPAL (Sigma, 18896), 10% Glycerol (Sigma, G5516), 100 μM PMSF (Fisher, 36978) and 10 μg/mL Leupeptin (Sigma-Aldrich, L2884). They were placed on a container of ice on a plate shaker (Lab-Line Instruments, 3595) for 30 minutes. The lysate was centrifuged at 10,000 g for 5 minutes at 4° C. The supernatant was collected and used for protein quantification (BioRad, 500-0112).
(§2) To determine effects on extracellular matrix protein secretion, 5 μM of individual glycopeptides were incubated with Human Dermal Fibroblasts (KMST-6). The control sample cells were treated with DMSO (Fisher, BP231-100). As described previously, supernatant was collected from treated cells (at two time-points, 48 and 72 hours of treatment) and stored at −80° C. for subsequent extracellular matrix protein quantification using ELISA kits (Fibronectin (Takara, MK115), Elastin (Uscn Life Science Inc., E91337Hu). For the determination of total cellular protein, treated cells were harvested and lysed. The lysate was centrifuged, the supernatant was collected and then used for protein quantification (BioRad, 500-0112). ELISA plates were read on the plate reader (Molecular Devices) at absorbance of 450 nm and SoftMax Pro software was used to compute the μg/ml values of protein of interest derived from the generated 4-parameter fit standard curve. Each μg/ml of protein secreted was normalized to total protein per well. The data was analysed by averaging out normalized values from at least three independent experiments and presenting them as a % compared to control treatment set at 100% (Table 2-5). Statistical significance was performed using One-way ANOVA (p<0.05) where “*” represents statistical significance when compared to control and “#” represents statistical significance when compared to reference. […]

[2] = test system: Human Dermal Fibroblasts (KMST-6); test: ECM ELISA assay: fibronectin secretion by human dermal fibroblasts; assay type: cell-based; details: 5 μM; for Fibronectin secretion at 48 hours: KMST-6, 48 hours; for Fibronectin secretion at 48 hours / Fibronectin Secretion at 72 hours: % compared to control set at 100%, normalized to total protein
Experimental: as §1, §2

Substance | Elastin Secretion at 48 hours [1] | Elastin Secretion at 72 hours ([1]; KMST-6, 72 hours) | Fibronectin secretion at 48 hours [2] | Fibronectin Secretion at 72 hours ([2]; KMST-6, 72 hours) [%] | biological activity in elastin secretion compared to control ([1]; 72 hours) | increased elastin secretion compared to control ([1]; 72 hours, versus DMSO control) [%] | ELASTIN (ECM Protein Summary Table) ([1]; KMST-6, 72 hours, control 100%) | biological activity in fibronectin secretion compared to control ([2]; 72 hours) | FIBRONECTIN (ECM Protein Summary Table) ([2]; KMST-6, 72 hours, control 100%) [%]
Pal-KT(Ac4-α-Man)TKS-OH (Palmitoyl-KT(Ac4‑α‑Man)TKS-OH; SMILES CCCCCCCCCCCCCCCC(=O)N[C@@H](CCCCN)C(=O)N[C@H](C(=O)N[C@H](C(=O)N[C@@H](CCCCN)C(=O)N[C@@H](CO)C(=O)O)[C@@H](C)O)[C@@H](C)O[C@H]1O[C@H](COC(C)=O)[C@@H](OC(C)=O)[C@H](OC(C)=O)[C@@H]1OC(C)=O; listed as Homo sapiens) [GP003-1] | 464.1* % | 413.6* % | 193.7* % | 125.3 |  |  |  |  | 
Pal-KS(Ac4-β-Glc)TKS-OH (Palmitoyl-KS(Ac4‑β‑Glc″)TKS-OH; SMILES CCCCCCCCCCCCCCCC(=O)N[C@@H](CCCCN)C(=O)N[C@@H](CO[C@@H]1O[C@H](COC(C)=O)[C@@H](OC(C)=O)[C@H](OC(C)=O)[C@H]1OC(C)=O)C(=O)N[C@H](C(=O)N[C@@H](CCCCN)C(=O)N[C@@H](CO)C(=O)O)[C@@H](C)O; listed as Homo sapiens) [GP003-3] | 177.1% | 146.8% | 162.0* % | 138.8 |  |  |  |  | 
Pal-KN(β-Glc)TKS-OH (Palmitoyl-KN(βGlc)TKS-OH; listed as Homo sapiens) [GP003-6] | 170.3% | 128.8% | 140.2% | 119.7 |  |  |  |  | 
Pal-KS(β-Glc)TKS-OH (Palmitoyl-KS(βGlc)TKS-OH; SMILES CCCCCCCCCCCCCCCC(=O)N[C@@H](CCCCN)C(=O)N[C@@H](CO[C@@H]1O[C@H](CO)[C@@H](O)[C@H](O)[C@H]1O)C(=O)N[C@H](C(=O)N[C@@H](CCCCN)C(=O)N[C@@H](CO)C(=O)O)[C@@H](C)O; listed as Homo sapiens) [GP003-4] | 136.8% | 120.8% | 165.8* % | 132.5 |  |  |  |  | 
Pal-KT(α-GalNAc)TKS-OH (Palmitoyl-KT(αGalNAc)TKS-OH; SMILES CCCCCCCCCCCCCCCC(=O)N[C@@H](CCCCN)C(=O)N[C@H](C(=O)N[C@H](C(=O)N[C@@H](CCCCN)C(=O)N[C@@H](CO)C(=O)O)[C@@H](C)O)[C@@H](C)O[C@H]1O[C@H](CO)[C@H](O)[C@H](O)[C@H]1NC(C)=O; listed as Homo sapiens) [GP001-4] | 104.5% | 100.0% | 134.2% | 112.5 |  |  |  |  | 
Pal-KTTKS(β-Gal)-OH (Palmitoyl-KTTKS(βGal)-OH; SMILES CCCCCCCCCCCCCCCC(=O)N[C@@H](CCCCN)C(=O)N[C@H](C(=O)N[C@H](C(=O)N[C@@H](CCCCN)C(=O)N[C@@H](CO[C@@H]1O[C@H](CO)[C@H](O)[C@H](O)[C@H]1O)C(=O)O)[C@@H](C)O)[C@@H](C)O; listed as Homo sapiens) [GP002-8] | 103.8% | 177.8% | 110.0% | 121.0 |  |  |  |  | 
Pal-KTTKS(Ac3-β-GlcNAc)-OH (Palmitoyl-KTTKS(Ac3‑β‑GlcNAc)-OH; SMILES CCCCCCCCCCCCCCCC(=O)N[C@@H](CCCCN)C(=O)N[C@H](C(=O)N[C@H](C(=O)N[C@@H](CCCCN)C(=O)N[C@@H](CO[C@@H]1O[C@H](COC(C)=O)[C@@H](OC(C)=O)[C@H](OC(C)=O)[C@H]1NC(C)=O)C(=O)O)[C@@H](C)O)[C@@H](C)O; listed as Homo sapiens) [GP002-5] | 159.3% | 137.3% | 111.3% | 104.2 |  |  |  |  | 
Pal-KTTKS(Ac3-α-GalNAc)-OH (Palmitoyl-KTTKS(Ac3‑α‑GalNAc″)-OH; SMILES CCCCCCCCCCCCCCCC(=O)N[C@@H](CCCCN)C(=O)N[C@H](C(=O)N[C@H](C(=O)N[C@@H](CCCCN)C(=O)N[C@@H](CO[C@H]1O[C@H](COC(C)=O)[C@H](OC(C)=O)[C@H](OC(C)=O)[C@H]1NC(C)=O)C(=O)O)[C@@H](C)O)[C@@H](C)O; listed as Homo sapiens) [GP002-1] | 144.8% | 145.5% | 114.7% | 108.0 |  |  |  |  | 
Pal-KT(α-Man)TKS-OH (Palmitoyl-KT(αMan)TKS-OH; SMILES CCCCCCCCCCCCCCCC(=O)N[C@@H](CCCCN)C(=O)N[C@H](C(=O)N[C@H](C(=O)N[C@@H](CCCCN)C(=O)N[C@@H](CO)C(=O)O)[C@@H](C)O)[C@@H](C)O[C@H]1O[C@H](CO)[C@@H](O)[C@H](O)[C@@H]1O; listed as Homo sapiens) [GP003-2] | 121.0% | 160.4% | 165.0* % | 110.3 |  |  |  |  | 
Pal-KN(Ac4-β-Glc)TKS-OH (Palmitoyl-KN(Ac4‑β‑Glc″)TKS-OH; listed as Homo sapiens) [GP003-5] | 211.4% | 194.2% | 146.0% | 136.0 |  |  |  |  | 
Pal-N(Ac4-β-Glc)KTTKS-OH (Palmitoyl-N(Ac4‑β‑Glc)KTTKS-OH; listed as Homo sapiens) [GP003-7] | 105.0% | 148.2% | 139.8% | 118.5 |  |  |  |  | 
Pal-KT(α-GalNAc)-T(α-GalNAc)KS-OH (Palmitoyl-KT(αGalNAc)T(αGalNAc)KS-OH; SMILES CCCCCCCCCCCCCCCC(=O)N[C@@H](CCCCN)C(=O)N[C@H](C(=O)N[C@H](C(=O)N[C@@H](CCCCN)C(=O)N[C@@H](CO)C(=O)O)[C@@H](C)O[C@H]1O[C@H](CO)[C@H](O)[C@H](O)[C@H]1NC(C)=O)[C@@H](C)O[C@H]1O[C@H](CO)[C@H](O)[C@H](O)[C@H]1NC(C)=O; listed as Homo sapiens) [GP001-14] | 88.00% | 98.25% | 104.8% | 94.75 |  |  |  |  | 
Pal-KTT(α-GalNAc)KS-OH (Palmitoyl-KTT(αGalNAc)KS-OH; SMILES CCCCCCCCCCCCCCCC(=O)N[C@@H](CCCCN)C(=O)N[C@H](C(=O)N[C@H](C(=O)N[C@@H](CCCCN)C(=O)N[C@@H](CO)C(=O)O)[C@@H](C)O[C@H]1O[C@H](CO)[C@H](O)[C@H](O)[C@H]1NC(C)=O)[C@@H](C)O; listed as Homo sapiens) [GP001-10] | 103.0% | 98.67% | 100.2% | 104.0 |  |  |  |  | 
Pal-KTTKS(Ac4-β-Gal)-OH (Palmitoyl-KTTKS(Ac4‑β‑Gal)-OH; SMILES CCCCCCCCCCCCCCCC(=O)N[C@@H](CCCCN)C(=O)N[C@H](C(=O)N[C@H](C(=O)N[C@@H](CCCCN)C(=O)N[C@@H](CO[C@@H]1O[C@H](COC(C)=O)[C@H](OC(C)=O)[C@H](OC(C)=O)[C@H]1OC(C)=O)C(=O)O)[C@@H](C)O)[C@@H](C)O; listed as Homo sapiens) [GP002-7] | 198.3% | 207.1* % | 113.7% | 116.1 | greater biological activity | 107 | 207* % | greater biological activity | 116
